According to US20250020635A1, “ASSAY METHODS AND USES THEREOF FOR SCREENING ALZHEIMER'S DISEASE TREATMENT COMPOUNDS” (priority 2023, published 2025):

Columns and labels:
[1] = test system: BV2 cells; assay: Microglial phagocytosis/cell health high-content assay, BV2 cells; format: cell-based; conditions: for Ave. % Cell Count @ 60 uM BV2 cells / Ave. % Phagocytosis @ 60 uM BV2 cells: 48 hrs, compared to control
Method: The assay introduced here is a simplified cellular imaging assay without any fixation and washing steps, while producing multiparameter measurements with high capacity using a 384-well plate format. The assay procedures include plating cells on day 1, incubating cell plates overnight before treating cells on day 2, adding pHrodo™-myelin/membrane debris to cell plates on day 3, and 20 hr later, staining cell nuclei with Hoechst-33342 for 30 min before performing high-content imaging on day 4. Three selected parameters are measured from cells: 1) mean total fluorescence intensity per cell of pHrodo™-myelin/membrane debris in phagocytosis vesicles to quantify phagocytosis; 2) cell counts per well to quantify treatment effects on proliferation and cell death; and 3) average nuclear intensity to quantify treatment-induced nuclear changes such as in apoptosis. The assay has been used on HMC3 cells (an immortalized human microglial cell line), BV2 cells (an immortalized mouse microglial cell line), and primary microglia isolated from mouse brains. For initial assay attempts, we recommend using HMC3 cells available from the ATCC.
All collected raw data are normalized to the untreated control with following formula: % of control=100×(X−Min)/(Max−Min). Factors in the formula are: X is raw data from a treated well, Max is an average measurement from pHrodo™-myelin seeded but untreated wells, and Min is an average measurement from no pHrodo™-myelin untreated wells. Normalized data are used for curve fitting that is done with the variable slope (four parameters) using the Prism software.
To ensure that the measurements reflect the steady state of compound treatment effects and cell health, the assay was set with a total compound treatment time of 48 hr, including pHrodo™-myelin/membrane debris seeding performed 20-24 hr after compound addition. […] Among many available quantitative measurements from the image analysis, we selected three parameters for the assay:
1) The mean total intensity of phagocytosis vesicles/cell—to measure phagocytosis. There are multiple parameters generated from the image analysis, including phagocytosis vesicle area, number, and various fluorescence intensity measurements. Comparing these parameters, the total fluorescence intensity of vesicles/cell is the most sensitive one and was chosen for quantifying phagocytosis.
2) The total cell counts—to measure overall cell viability, which is affected by proliferation and cell death. We chose to take 4 images/well (with the 10× objective lens) that cover about 50% of the total area of a well in a 384-well plate to represent cell count of the well.
3) The average nuclear intensity—to measure drug-induced apoptosis, with high signal indicating nuclear condescension (a sign of early apoptosis) and low signal indicating DNA degradation (a sign of later apoptosis, when activated caspases digest DNA).
A phenotypic high-content imaging assay with simultaneous measurements of phagocytosis, cell number, and nuclear intensity was used to assess both cellular pharmacology and cell health. Model cell lines BV2 (immortalized mouse microglia, a gift from Dr. Michelle Block's laboratory at IUSM) and HMC3 (immortalized human microglia, obtained from ATCC, CRL-3304) were used to provide adequate throughput. Cells were cultured in DMEM GlutaMax media (ThermoFisher) containing 10% FBS and Pen-Strep in a 37° C. 5% CO2 incubator, plated in Corning Falcon 384 well Optilux Black and clear bottom plates: 400 cells/45 μl/well (BV2 cells), 600 cells/45 μl/well (HMC3 cells) and 2000 cell/45 μl/well (primary cells), and treated with 10× serially diluted compounds (60 μM-3 nM) for 48 hrs at 37° C. […]

[2] = target: T1, PLCγ2 enzyme (Homo sapiens, UniProt P16885); assay: Liposomal biochemical assay with fluorogenic probe XY-69; conditions: for increase in PLCγ2 activity (change in slope relative to control): dose response, liposomes with XY-69
T1 sequence (P16885 1-1265): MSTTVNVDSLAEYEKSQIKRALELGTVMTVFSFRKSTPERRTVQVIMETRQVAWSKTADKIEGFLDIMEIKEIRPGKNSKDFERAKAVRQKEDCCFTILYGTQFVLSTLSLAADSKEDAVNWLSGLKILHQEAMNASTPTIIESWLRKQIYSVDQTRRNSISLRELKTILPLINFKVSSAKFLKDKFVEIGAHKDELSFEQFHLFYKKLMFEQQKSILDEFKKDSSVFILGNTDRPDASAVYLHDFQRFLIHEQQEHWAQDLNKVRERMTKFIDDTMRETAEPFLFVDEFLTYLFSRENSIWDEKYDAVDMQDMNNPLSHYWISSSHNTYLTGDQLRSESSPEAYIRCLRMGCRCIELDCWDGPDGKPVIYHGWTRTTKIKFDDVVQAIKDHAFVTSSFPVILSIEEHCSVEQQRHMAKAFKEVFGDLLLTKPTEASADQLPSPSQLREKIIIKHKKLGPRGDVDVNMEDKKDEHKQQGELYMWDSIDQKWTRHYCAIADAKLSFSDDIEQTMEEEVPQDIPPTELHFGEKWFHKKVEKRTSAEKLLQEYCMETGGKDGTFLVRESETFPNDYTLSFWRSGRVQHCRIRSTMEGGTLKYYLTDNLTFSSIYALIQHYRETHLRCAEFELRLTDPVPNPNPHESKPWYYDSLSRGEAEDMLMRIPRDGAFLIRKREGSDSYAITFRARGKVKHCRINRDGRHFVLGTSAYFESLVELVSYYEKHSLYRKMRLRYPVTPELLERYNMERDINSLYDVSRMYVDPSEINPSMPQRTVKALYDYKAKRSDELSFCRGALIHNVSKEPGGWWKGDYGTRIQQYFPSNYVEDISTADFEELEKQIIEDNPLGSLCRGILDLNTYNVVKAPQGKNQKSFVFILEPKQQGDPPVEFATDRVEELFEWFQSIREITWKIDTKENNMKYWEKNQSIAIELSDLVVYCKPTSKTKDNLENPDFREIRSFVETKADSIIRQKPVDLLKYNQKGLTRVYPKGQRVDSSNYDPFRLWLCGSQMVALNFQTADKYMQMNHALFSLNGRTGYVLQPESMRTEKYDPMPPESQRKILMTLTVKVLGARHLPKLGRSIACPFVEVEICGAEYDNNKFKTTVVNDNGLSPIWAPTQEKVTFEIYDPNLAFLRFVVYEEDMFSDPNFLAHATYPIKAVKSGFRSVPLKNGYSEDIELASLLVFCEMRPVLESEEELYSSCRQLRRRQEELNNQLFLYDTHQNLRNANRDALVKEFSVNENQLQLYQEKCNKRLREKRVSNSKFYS
Description: Sondek and coworkers have described an assay for PLCγ1 activity in the presence of liposomes as a model for activity at the cell membrane where the natural ligand is located.^36 The assay was redeveloped and reoptimized for PLCγ2 at the Purdue Institute for Drug Discovery. Liposomes containing XY-69 (purchased from Avanti Polar Lipids, cat. #850168) were generated using phosphatidylinositol 4,5-bisphosphate (PIP2) and 1-stearoyl-2-arachidonoyl-sn-glycero-3-phosphatidylethanolamine (lipidPE). The PLCγ2 enzyme was exposed to this solution and, after treatment with the compounds of interest, the fluorescence intensity (ex: 485 nm; em: 520 nm) was recorded every 2 min for 120 min (FIG. 19). The slope of the linear portion of the curves (up to 50 min) was compared to control giving a relative rate of reaction. Dose dependent curves of a representative sample of the compounds tested are shown (FIG. 20A-20B).

Row | Structure (SMILES) | Ave. % Cell Count @ 60 uM BV2 cells [1] | Ave. % Phagocytosis @ 60 uM BV2 cells [1] | increase in PLCγ2 activity (change in slope relative to control) [2] | increase in PLCγ2 activity (change in slope relative to control) ([2]; listed as m-3M3FBS) | phagocytosis increase against cell count decline ([1]; HMC3 and BV2 cells (Table 6, FIGS. 21, 22)) | enzymatic activation, single dose ([2]; 100 μM)
1 | Cc1cc(C)c(S(=O)(=O)Nc2ccccc2C(F)(F)F)c(C)c1 [Compound 2, o-3M3FBS, reference compound] | 104% | 104% | much lower, though it still showed a statistically significant increase in activation | – | – | –
2 | Cc1cc(C)c(S(=O)(=O)Nc2cccc(C(F)(F)F)c2)c(C)c1 [Compound 1, 2,4,6-trimethyl-N-(meta-3-trifluoromethyl-phenyl)-benzenesulfonamide, reference compound] | 2% | 0.05% | among the highest increases of all analogs tested | highest increase in response | – | –
3 | O=S(=O)(Nc1ccc(Br)cc1F)c1cccs1 [Compound 8] | 86% | 114% | – | – | – | –
4 | Cc1cc(C)c(S(=O)(=O)NC2CCCNC2)c(C)c1 (stereo not shown) [Compound 11] | 63% | 225% | – | – | moderate degree of potential cytotoxicity | no enzymatic activation
